This note sets out measurements from publication PMC8773213, “In Vitro Anticancer Activity and Mechanism of Action of an Aziridinyl Galactopyranoside” (Biomedicines, 2021).

Data set [1] deals with VH10 (Human skin non-malignant cells). The experiment in a line: Resazurin cell viability assay, VH10. Format: cell-based. To be noted: 72 h, read-out: IC50 (Mean ± SEM, µM), VH10. The procedure:
(§1) Exponentially growing cells were seeded in 96-well plates and allowed to attach and grow for 24 h. The cells were then treated with increasing concentrations of the tested drugs. At the end of the treatment period, cell viability was measured with the MTT assay or the resazurin assay, two widely used techniques.
(§2) The resazurin assay is a redox-based colorimetric/fluorometric technique based on the ability of viable cells to reduce the blue compound resazurin into the pink, fluorescent and soluble product resorufin. The amount of resorufin produced is generally proportional to the number of living cells. In this assay, 24 h after seeding, cells were exposed to the tested drugs for 72 h. Then 100 μL resazurin in medium was added to each well (final concentration of 10 μg/mL) and, one hour later the fluorescence intensity was measured at 530/590 nm (excitation/emission) using a fluorescence microplate reader.
(§3) In both assays, cell viability was expressed as percentage compared to untreated cells. Results were expressed as the means ± standard error of the mean (SEM). All data are from at least three independent experiments.
A general note: The colour change of resazurin is a common sign of viable cells or microbes.

Data set [2] concerns AA8 cells. The experiment in a line: Comet assay (DNA damage). To be noted: 4 h. Format: cell-based, Chinese hamster. From the text:
The single cell gel electrophoresis assay, also known as comet assay, is a widely used technique for the study of levels of damage in cellular DNA. In this assay, individual cells embedded in agarose are lysed, electrophoresed, stained with a fluorescent dye and examined under an epifluorescence microscope. […] The quantity of DNA present in the tail is indicative of DNA damage. This assay has been described in detail by Singh et al.. We followed this protocol with minor modifications previously described. Briefly, standard slides were immersed in 1% normal melting agarose at 55 °C, left to allow the agarose to solidify and kept at 4 °C until use. Cells were seeded in 6-well plates, allowed to grow for 24 h and then cells were exposed to AzGalp or CTP (positive control) for 4 h. At the end of the treatment, cells were harvested by trypsinization, washed with PBS and resuspended in PBS at a concentration of approximately 1 million cells/mL; 10 µL cell suspension was mixed with 85 μL of low-melting agarose (LMA) at 37 °C and the mixture was quickly added to the slides with the first layer of agarose, spread using a coverslip and kept at 4 °C for 8 min to allow the LMA to solidify. The coverslips were then removed and another layer of 100 μL of LMA at 37 °C was added, covered with a coverslip and allowed to solidify at 4 °C for 8 min. After removing the coverslips, the slides were incubated in the dark for 1 h at 4 °C in a lysis buffer (pH 10.0) containing 0.25 M NaOH, 10% DMSO, 1% Triton X-100, 10 mM Tris-HCl, 100 mM Na2-EDTA and 2.5 M NaCl. Next, alkaline denaturation with electrophoretic buffer (300 mM NaOH and 1 mM Na2-EDTA) was carried out in an electrophoresis chamber for 20 min and then electrophoresis was performed at 1 V/cm for 20 min. […] DNA damage levels were quantified for each cell and expressed as percent of DNA in the tail and as the tail moment (defined as the product of the tail length and the fraction of total DNA in the tail). The results were averaged from two independent experiments and expressed as mean ± SEM.

In data set [3] the test system is A549 cells. The experiment in a line: Glycolysis inhibition (glucose consumed, lactate produced). Type of data set: cell-based, human. To be noted: A549, 8 h. The method, then:
Inhibition of glycolysis was determined by measuring glucose consumed (initial product of glycolysis) and lactate produced (final product of glycolysis) in untreated and treated cells. Cells were seeded in 6-well plates at a density of 10^6 cells/well and were allowed to attach for a few hours before treatment with the tested compounds for 8 h. After treatment, medium was recollected and glucose and lactate concentrations were determined using the Accutrend® Plus analyzer together with Accutrend glucose strips and BM-Lactate strips (Roche Diagnostics, Barcelona, Spain). After calibrating the instrument with glucose and lactate calibration strips, test strips were used to determine glucose and lactate levels through colorimetric oxidase mediator reactions according to the manufacturer’s instructions. The results are expressed as percentage of glucose consumption and percentage of lactate production in relation to untreated cells. Data were averaged from two independent experiments and shown as mean ± SEM.

The subject of data set [4] is U2OS (Human osteosarcoma cells). The experiment in a line: Resazurin cell viability assay, U2OS. Format: cell-based. The following applies: 72 h, read-out: IC50 (Mean ± SEM, µM), U2OS. The method, then:
as §1, §2, §3

The subject of data set [5] is BJ-hTERT (hTERT-immortalized skin non-malignant BJ cells). The experiment in a line: Resazurin cell viability assay, BJ-hTERT. To be noted: Homo sapiens, 72 h, read-out: IC50 (Mean ± SEM, µM), BJ-hTERT. Type of data set: cell-based. The procedure: as §1, §2, §3
Data set [6] relates to PC3 (Human prostate cancer cells). The data set is described as follows: Resazurin cell viability assay, PC3. Format: cell-based. The following applies: 72 h, read-out: IC50 (Mean ± SEM, µM), PC3. The procedure: as §1, §2, §3
Data set [7] deals with HeLa (Human cervical carcinoma cells). The data set is described as follows: Resazurin cell viability assay, HeLa. Format: cell-based. The following applies: 72 h, read-out: IC50 (Mean ± SEM, µM), HeLa. The procedure:
as §1, §2, §3

The subject of data set [8] is MRC-5 (Human lung non-malignant cells). The data set is described as follows: Resazurin cell viability assay, MRC-5. Format: cell-based. The following applies: MRC5, 72 h, read-out: IC50 (Mean ± SEM, µM), MRC-5. The procedure:
as §1, §2, §3

Data set [9] deals with MRC-5 lung normal cells. The experiment in a line: MTT cytotoxicity of combinations, MRC-5. Format: cell-based. To be noted: 48 h. The method, then:
as §1
In the case of the MTT assay, this technique detects viable cells using the ability of these cells to reduce the yellow tetrazolium MTT to an insoluble colored formazan product. Subsequently, this product was solubilized and analyzed by spectrophotometry. Dead cells cannot reduce the MTT into the colored formazan product. Briefly, 24 h after plating, cells were treated with the tested compounds for 48 h; except in experiments with DNA repair-proficient and -deficient cell lines, in which cells were only exposed for 24 h to drugs and allowed to grow for an additional 48 h in drug-free medium to allow them to repair possible DNA damage induced by the tested drugs. […] Finally, plates were incubated overnight at 37 °C and optical densities were measured at 540 nm using an absorbance spectrophotometer microplate reader.
In both assays, cell viability was expressed as percentage compared to untreated cells. Results were expressed as the means ± standard error of the mean (SEM). […]

The term IC50 denotes the point on the concentration scale where inhibition reaches its midpoint.

In the case of `Cc1ccc(S(=O)(=O)N2CC2(C)CO[C@@H]2O[C@@H]3CO[C@H](c4ccccc4)O[C@@H]3[C@H](OCc3ccccc3)[C@H]2OCc2ccccc2)cc1` (stereo partly drawn) [AzGalp, 2-methyl-2,3-[N-(4-methylbenzenesulfonyl)imino]propyl 2,3-di-O-benzyl-4,6-O-(S)-benzylidene-β-D-galactopyranoside], the 50% inhibitory concentration (IC50) in [1] amounted to 411 ± 39.4 µM; in [4], 120 ± 8 µM; in [5], 209 ± 24.2 µM; in [6] it was 401 ± 14.8 µM; in data set [7], 191 ± 35.8 µM; in data set [8] it was 341 ± 85 µM. Besides, the “Level of DNA damage in comet assay” value in data set [2] (50 µM AzGalp versus 10 µM CPT) is “lower than that of the DNA-damaging agent CPT”. In addition, in data set [2] (50 µM), the “Cells with higher levels of DNA damage than untreated cells” value was “approximately 30%”. Moreover, the “Glycolytic activity (glucose consumption and lactate production)” value in data set [3] is reported as “did not affect the glycolytic activity”. The “Cytotoxicity of combination with 5-FU, normal cells” value in [9] (100 μM AzGalp + 10 μM 5-FU) is recorded as “did not increase cytotoxicity against normal cells”. Also, in [9] (100 μM AzGalp + 10 μM oxaliplatin), the “Cytotoxicity of combination with oxaliplatin, normal cells” value is reported as “did not increase cytotoxicity against normal cells”.
